Measured values taken from paper PMC11243693, “Synthesis and Biological Evaluation of New Compounds with Nitroimidazole Moiety” (Molecules, 2024).

Experiments:
SW620 cells = assay: MTT assay, SW620 cells; format: cell-based, human; details: for SI (Selectivity Index): IC50 for normal cell line (HaCaT)/IC50 SW620; for IC50: SW-620, SW620 human metastatic colon cancer, MTT, 24 h, mean SD
MDA-MB-231 cells = assay: MTT assay, MDA-MB-231 cells; format: cell-based, human; details: for IC50: MDA-MB-231 human breast adenocarcinoma, MTT, 24 h, mean SD; for SI (Selectivity Index): IC50 for normal cell line (HaCaT)/IC50 MDA-MB-231
Method: (§1) Colon cancer (SW480), breast adenocarcinoma (MDA-MB-231), lung carcinoma (A-549), prostate cancer (PC3), and immortal keratinocyte (HaCaT) cell lines of human origin were acquired from the American Type Culture Collection (ATCC). The recommended culture media and protocols provided by ATCC were as follows: SW480 were cultured in Minimum Essential Medium (MEM), MDA-MB-231, A-549, and HaCaT cells were cultured in Dulbecco’s Modified Eagle Medium (DMEM), while PC3 was cultured in Roswell Park Memorial Institute Medium (RPMI). The culture media were supplemented with 10% fetal bovine serum (FBS), penicillin (100 U/mL), and streptomycin (100 μg/mL). Cells were maintained in a humidified incubator at 37 °C with 5% CO2. Passaging was carried out upon reaching 80–90% confluence using 0.25% trypsin (Gibco Life Technologies, New York, NY, USA) treatment prior to experimentation.
(§2) Cell viability was assessed utilizing the MTT assay, which relies on the conversion of 3-(4,5-dimethylthiazol-2-yl)-2,5-diphenyltetrazolium bromide salt (MTT) to formazan crystals by mitochondrial dehydrogenases in viable cells. Initially, cells were plated in 96-well plates at a density of 1 × 10^4 cells per well and allowed to attach for 24 h at 37 °C in a CO2 incubator. Subsequently, the culture medium was replaced with fresh medium containing various concentrations of the test compounds (ranging from 1 to 100 μM), and cells were further cultured for 24 h at 37 °C in a CO2 incubator. Control wells were left untreated for comparison. After the incubation period, MTT solution (0.5 mg/mL in serum-free medium) was added to each well, followed by a 4-h incubation at 37 °C in a CO2 incubator. The medium was then aspirated, and the formazan crystals were dissolved by adding a mixture of isopropanol and DMSO (1:1). The absorbance of the resulting solution was measured at 570 nm using a UVM 340 reader (ASYS Hitech GmbH, Seekirchen am Wallersee, Austria). IC50 values were determined using GraphPad software (GraphPad Prism 8 Software).

A-549 cells = assay: MTT assay, A-549 cells; format: cell-based, human; details: for IC50: A549, A-549 human lung carcinoma, MTT, 24 h, mean SD; for SI (Selectivity Index): IC50 for normal cell line (HaCaT)/IC50 A-549
Method: as §1, §2

HaCaT cells = assay: MTT assay, HaCaT normal cells; format: cell-based; details: HaCaT human immortal keratinocyte (normal cells), 24 h, mean SD
Method: as §1, §2

PC3 cells = assay: MTT assay, PC3 cells; format: cell-based, human; details: for SI (Selectivity Index): IC50 for normal cell line (HaCaT)/IC50 PC3; for IC50: PC-3, PC3 human metastatic prostate cancer, MTT, 24 h, mean SD
Method: as §1, §2

Row | IC50 (SW620 cells) | melting point | IC50 (MDA-MB-231 cells) | IC50 (A-549 cells) | IC50 (PC3 cells) | Compound | SI (Selectivity Index) (SW620 cells) | IC50 (HaCaT cells) | SI (Selectivity Index) (PC3 cells) | SI (Selectivity Index) (MDA-MB-231 cells) | SI (Selectivity Index) (A-549 cells)
1 | 64.2 ± 6.88 µM | 214 to 216 °C | > 100 µM | > 100 µM | 70.2 ± 4.2 µM | COc1ccc(C=NNC(=O)c2nc([N+](=O)[O-])cn2C)c(O)c1 [Compound 30, N’-[(2-hydroxy-4-methoxyphenyl)methylidene]-1-methyl-4-nitro-1H-imidazole-2-carbohydrazide] | 1.5 | 97 ± 5.48 µM | 1.4 | – | –
2 | 86.3 ± 3.81 µM | 236 to 238 °C | > 100 µM | > 100 µM | 70.4 ± 2.76 µM | COc1ccc(O)c(C=NNC(=O)c2nc([N+](=O)[O-])cn2C)c1 [Compound 31, N’-[(2-hydroxy-5-methoxyphenyl)methylidene]-1-methyl-4-nitro-1H-imidazole-2-carbohydrazide] | – | > 100 µM | – | 1 | 1
3 | 0.3 ± 0.1 µM | – | 1.6 ± 0.23 µM | 0.2 ± 0.09 µM | 0.3 ± 0.1 µM | COc1cccc2c1C(=O)c1c(O)c3c(c(O)c1C2=O)C[C@@](O)(C(=O)CO)C[C@@H]3O[C@H]1C[C@H](N)[C@H](O)[C@H](C)O1 [Doxo-rubicin, doxorubicin] | 1.0 | 0.3 ± 0.1 µM | 1 | 0.19 | 1.5
